Experimental data published in patent US10035991B2, “Non-transgenic herbicide resistant plants” (priority 1999, dated 2018).

Tests used:
[1] = molecular target: wild-type EPSPS from E. coli (Escherichia coli, UniProt P0A6D3); settings: read-out: apparent Km for PEP; cited from earlier work
[2] = system: SA4247 Salmonella typhi cells expressing mutant Arabidopsis thaliana EPSPS; assay: Glyphosate resistance assay (growth by optical density at 600 nm); assay type: cell-based; settings: 17 mM or 0 mM glyphosate, liquid M9 medium, OD 600 nm every hour for seven hours, compared to wild-type cells (FIG. 6)
Experimental: Electrocompetent cells of SA4247, a LacZ—Salmonella typhi strain, were prepared according to well known procedures (see Current Protocols in Molecular Biology, (Wiley and Sons, Inc.)). 30 μl of SA4247 competent cells were electroporated with 20 ng of each plasmid DNA encoding Arabidopsis wild-type and mutant EPSPS proteins, Bacillus wild-type EPSPS, along with a mock transfection as a control. The settings for electroporation were 25 μF, 2.5 KV and 200 ohms. After electroporation, the cells were transferred into 15 mls culture tube and supplemented with 970 μl of SOC medium. The cultures were incubated for 1½ hours at 37° C. at 225 rpm. 501 of each culture were plated onto LB plates containing 17 μg/ml chloramphenicol (in duplicates) and incubated overnight at 37° C. On the following day, 5 colonies of each plate were picked and transferred onto M9 plates and incubated overnight at 37° C.
Colonies from the overnight incubation on solid M9 were inoculated into 4 ml of liquid M9 medium and grown overnight at 37° C. On the following day, 25 ml of liquid M9 medium containing chloramphenicol, IPTG and 17 mM or 0 mM Glyphosate (Aldrich, 33775-7) were inoculated with 1-2 mls of each overnight culture (in duplicates), the starting OD (at 600 nm) was measured and all the cultures were normalized to start at the same OD. An OD measurement was taken every hour for seven hours. […]

Chain of wild-type EPSPS from E. coli (P0A6D3 whole entry): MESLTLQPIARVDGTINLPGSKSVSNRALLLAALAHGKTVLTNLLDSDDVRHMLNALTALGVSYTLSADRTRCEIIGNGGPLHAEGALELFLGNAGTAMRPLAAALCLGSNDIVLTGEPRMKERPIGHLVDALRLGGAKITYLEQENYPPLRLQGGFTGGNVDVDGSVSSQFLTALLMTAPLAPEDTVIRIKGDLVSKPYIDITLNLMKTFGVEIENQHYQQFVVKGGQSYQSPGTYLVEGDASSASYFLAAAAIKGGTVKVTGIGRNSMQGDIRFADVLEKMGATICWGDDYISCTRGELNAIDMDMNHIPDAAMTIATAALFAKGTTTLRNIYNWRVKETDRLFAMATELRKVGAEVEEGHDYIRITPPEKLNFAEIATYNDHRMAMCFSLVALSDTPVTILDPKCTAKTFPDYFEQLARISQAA

SMILES	Km [1]	growth rate of cells containing a mutation in the EPSPS gene [2]
C=C(OP(=O)(O)O)C(=O)O [PEP, phosphoenolpyruvic acid]	10 µM	
O=C(O)CNCP(=O)(O)O [glyphosate, N-phosphonomethylglycine]		substantially similar growth rate in the absence or presence of glyphosate
